# Results: patent US11180521B2, “Nicotinamide riboside analogs, pharmaceutical compositions, and uses thereof” (Metro International Biotech, LLC, priority 2018, dated 2021)
# Assays:
# [1] = tested on: NAD, NAAD, NAM, and NMN levels in liver; assay: PK/PD duration of effect study, single oral gavage dose: NAD, NAAD, NAM and NMN levels in liver; format: in vivo, C57BL/6 mice; set-up: key to NAAD concentration: BQL: Below quantitation limit; BDL: Below Detection Limit, No Peak Detected; conditions: for NAAD concentration: pre-dose BDL
# Method: (§1) Transcyclohexyl nicotinic acid riboside (NaR) dimer was administered by oral gavage at a dose of 500 mg/kg in an Ethanol/PBS, pH 7.4/PEG400 (10/30/60) vehicle. The dosing volume was 5 ml/kg at a solution concentration of 100 mg/ml. The solution concentration was increased for the presence of counterion.
# (§2) Animals were fasted for 16 hours prior to dosing. Samples were collected pre-dose and at 0.25, 0.75, 1, 2, 4, 8 and 24 hr post dosing. Following euthanasia, the entire liver and skeletal muscle (gastrocnemius with attached soleus muscle, bilateral) were rinsed with 0.9% saline, and frozen for later bioanalysis. Samples were maintained frozen at −80° C. until bioanalysis.
# (§3) Samples were thawed, homogenized, extracted and analyzed by LC-MS on the same day. The LC used was a Shimadzu Nexera UPLC, and the mass spectrometer was an AB Sciex Qtrap 6500. Specimens were analyzed for levels of administered compound (transcyclohexyl NaR dimer), as well as for levels of NAD, NAAD, NAM, and NMN by the method of standard addition, to detect alterations from the basal levels of the analytes. Calibration standards for quantifying administered compound were prepared using transcyclohexyl NaR dimer in mouse liver or skeletal muscle homogenates. Corresponding standards for quantifying other metabolites were also prepared. Data are calculated as the mean concentration from n=6 animals per time point.
# [2] = PK/PD duration of effect study, single oral gavage dose: administered compound level in liver; format: in vivo, C57BL/6 mice; set-up: key to transcyclohexyl NaR dimer concentration: BQL: Below quantitation limit; BDL: Below Detection Limit, No Peak Detected
# Method: as §1, §2, §3
structure (smiles),measurement,setting,value
"CC(=O)OC[C@H]1O[C@@H]([n+]2cccc(C(=O)O[C@H]3CC[C@H](OC(=O)c4ccc[n+]([C@@H]5O[C@H](COC(C)=O)[C@@H](OC(C)=O)[C@H]5OC(C)=O)c4)CC3)c2)[C@H](OC(C)=O)[C@@H]1OC(C)=O [transcyclohexyl NaR dimer, Transcyclohexyl nicotinic acid riboside (NaR) dimer]",NAM concentration,"[1]; 0.25 hr after 500 mg/kg oral gavage, pre-dose 52.5",58.7 µg/g
same,NAD concentration,"[1]; 0.25 hr after 500 mg/kg oral gavage, pre-dose 713",623 µg/g
same,NAAD concentration,[1]; 0.25 hr after 500 mg/kg oral gavage,BDL
same,NMN concentration,"[1]; 0.75 hr after 500 mg/kg oral gavage, pre-dose 0.00637",0.00977 mmol/kg
same,NAM concentration,"[1]; 0.75 hr after 500 mg/kg oral gavage, pre-dose 0.430",1.69 mmol/kg
same,NAD concentration,"[1]; 0.75 hr after 500 mg/kg oral gavage, pre-dose 1.08",0.493 mmol/kg
same,NMN concentration,"[1]; 0.75 hr after 500 mg/kg oral gavage, pre-dose 2.13",3.26 µg/g
same,NAM concentration,"[1]; 0.75 hr after 500 mg/kg oral gavage, pre-dose 52.5",206 µg/g
same,NAD concentration,"[1]; 0.75 hr after 500 mg/kg oral gavage, pre-dose 713",327 µg/g
same,NAAD concentration,[1]; 0.75 hr after 500 mg/kg oral gavage,BDL
same,NMN concentration,"[1]; 1 hr after 500 mg/kg oral gavage, pre-dose 0.00637",0.00945 mmol/kg
same,NAM concentration,"[1]; 1 hr after 500 mg/kg oral gavage, pre-dose 0.430",1.48 mmol/kg
same,NAD concentration,"[1]; 1 hr after 500 mg/kg oral gavage, pre-dose 1.08",0.575 mmol/kg
same,NMN concentration,"[1]; 1 hr after 500 mg/kg oral gavage, pre-dose 2.13",3.16 µg/g
same,NAM concentration,"[1]; 1 hr after 500 mg/kg oral gavage, pre-dose 52.5",181 µg/g
same,NAD concentration,"[1]; 1 hr after 500 mg/kg oral gavage, pre-dose 713",381 µg/g
same,NAAD concentration,[1]; 1 hr after 500 mg/kg oral gavage,BDL
same,NMN concentration,"[1]; 2 hr after 500 mg/kg oral gavage, pre-dose 0.00637",0.00706 mmol/kg
same,NAM concentration,"[1]; 2 hr after 500 mg/kg oral gavage, pre-dose 0.430",0.660 mmol/kg
same,NAD concentration,"[1]; 2 hr after 500 mg/kg oral gavage, pre-dose 1.08",1.19 mmol/kg
same,NMN concentration,"[1]; 2 hr after 500 mg/kg oral gavage, pre-dose 2.13",2.36 µg/g
same,NAM concentration,"[1]; 2 hr after 500 mg/kg oral gavage, pre-dose 52.5",80.6 µg/g
same,NAD concentration,"[1]; 2 hr after 500 mg/kg oral gavage, pre-dose 713",787 µg/g
same,NMN concentration,"[1]; 4 hr after 500 mg/kg oral gavage, pre-dose 0.00637",0.0146 mmol/kg
same,NAM concentration,"[1]; 4 hr after 500 mg/kg oral gavage, pre-dose 0.430",0.791 mmol/kg
same,NAD concentration,"[1]; 4 hr after 500 mg/kg oral gavage, pre-dose 1.08",2.23 mmol/kg
same,NMN concentration,"[1]; 4 hr after 500 mg/kg oral gavage, pre-dose 2.13",4.87 µg/g
same,NAM concentration,"[1]; 4 hr after 500 mg/kg oral gavage, pre-dose 52.5",96.5 µg/g
same,NAD concentration,"[1]; 4 hr after 500 mg/kg oral gavage, pre-dose 713",1478 µg/g
same,NMN concentration,"[1]; 8 hr after 500 mg/kg oral gavage, pre-dose 0.00637",0.0250 mmol/kg
same,NAM concentration,"[1]; 8 hr after 500 mg/kg oral gavage, pre-dose 0.430",0.609 mmol/kg
same,NAD concentration,"[1]; 8 hr after 500 mg/kg oral gavage, pre-dose 1.08",4.92 mmol/kg
same,NMN concentration,"[1]; 8 hr after 500 mg/kg oral gavage, pre-dose 2.13",8.34 µg/g
same,NAM concentration,"[1]; 8 hr after 500 mg/kg oral gavage, pre-dose 52.5",74.3 µg/g
same,NAD concentration,"[1]; 8 hr after 500 mg/kg oral gavage, pre-dose 713",3267 µg/g
same,NMN concentration,"[1]; 24 hr after 500 mg/kg oral gavage, pre-dose 0.00637",0.00459 mmol/kg
same,NAM concentration,"[1]; 24 hr after 500 mg/kg oral gavage, pre-dose 0.430",0.381 mmol/kg
same,NAD concentration,"[1]; 24 hr after 500 mg/kg oral gavage, pre-dose 1.08",1.10 mmol/kg
same,NMN concentration,"[1]; 24 hr after 500 mg/kg oral gavage, pre-dose 2.13",1.53 µg/g
same,NAM concentration,"[1]; 24 hr after 500 mg/kg oral gavage, pre-dose 52.5",46.6 µg/g
same,NAD concentration,"[1]; 24 hr after 500 mg/kg oral gavage, pre-dose 713",731 µg/g
same,NAAD concentration,[1]; 24 hr after 500 mg/kg oral gavage,BDL
same,% AUC Extrap of transcyclohexyl NaR dimer,[2]; 500 mg/kg oral gavage,0.00%
same,AUC(0-x) of transcyclohexyl NaR dimer,[2]; 500 mg/kg oral gavage,3.05 µg·h/g
same,AUC(0-∞) of transcyclohexyl NaR dimer,[2]; 500 mg/kg oral gavage,3.05 µg·h/g
same,transcyclohexyl NaR dimer concentration,"[2]; 0.25 hr after 500 mg/kg oral gavage, pre-dose BQL",0.0125 mmol/kg
same,transcyclohexyl NaR dimer concentration,"[2]; 0.75 hr after 500 mg/kg oral gavage, pre-dose BQL",0.000387 mmol/kg
same,transcyclohexyl NaR dimer concentration,"[2]; 1 hr after 500 mg/kg oral gavage, pre-dose BQL",0.000275 mmol/kg
same,transcyclohexyl NaR dimer concentration,"[2]; 2 hr after 500 mg/kg oral gavage, pre-dose BQL",0.0000706 mmol/kg
same,transcyclohexyl NaR dimer concentration,"[2]; 4 hr after 500 mg/kg oral gavage, pre-dose BQL",BQL
same,transcyclohexyl NaR dimer concentration,"[2]; 8 hr after 500 mg/kg oral gavage, pre-dose BQL",BQL
same,transcyclohexyl NaR dimer concentration,"[2]; 24 hr after 500 mg/kg oral gavage, pre-dose BQL",BQL
same,Cmax,"[2]; C57BL/6, mouse, 500 mg/kg oral gavage, read-out: Cmax of transcyclohexyl NaR dimer",10600 ng/g
same,Tmax,"[2]; C57BL/6, mouse, 500 mg/kg oral gavage, read-out: tmax of transcyclohexyl NaR dimer",15 min
same,half-life,"[2]; C57BL/6, mouse, 500 mg/kg oral gavage, regression points 0.75, 1, 2 h, read-out: t½ of transcyclohexyl NaR dimer (converted)",30.5 min
same,concentration at 0.25 h,"[2]; C57BL/6, mouse, 0.25 hr after 500 mg/kg oral gavage, pre-dose BQL, read-out: transcyclohexyl NaR dimer concentration",10600 ng/g
same,concentration at 0.75 h,"[2]; C57BL/6, mouse, 0.75 hr after 500 mg/kg oral gavage, pre-dose BQL, read-out: transcyclohexyl NaR dimer concentration",327 ng/g
same,concentration at 1 h,"[2]; C57BL/6, mouse, 1 hr after 500 mg/kg oral gavage, pre-dose BQL, read-out: transcyclohexyl NaR dimer concentration",232 ng/g
same,concentration at 2 h,"[2]; C57BL/6, mouse, 2 hr after 500 mg/kg oral gavage, pre-dose BQL, read-out: transcyclohexyl NaR dimer concentration",60 ng/g
